1 compound from US12209142B2, “SARS-CoV-2 epitope-targeted peptide immunostimulants” (Institute for Systems Biology, priority 2020, dated 2025) can be followed below.

Assay [1] has as its system K. pneumoniae cells (strain BAA 1705). Briefly: Gentamicin protection assay: phagocytosis and opsonophagocytic killing (OPK) by macrophages. In kind it is cell-based, Klebsiella pneumoniae. The procedure: FIGS. 7A and 7B show a gentamicin protection assay that evaluates EPI-driven phagocytosis and opsonophagocytic killing (OPK) of K. pneumoniae cells by murine bone-marrow-derived macrophages. FIG. 7A is a flow diagram depicting the assay used to evaluate EPI-driven opsonophagocytic killing (OPK) of K. pneumoniae cells. Briefly, K. pneumoniae cells (strain BAA 1705) opsonized by EPIs (AR-PCCs) and anti-DNP antibodies were incubated with macrophages for 1 or 24 h. Macrophages were lysed, and the lysate was plated to obtain bacterial colonies that were subsequently counted. FIG. 7B is a plot of colony counts for various samples subjected to the OPK assay. […] All EPIs (AR-PCCs) were used at a 5 μM concentration, measurements were conducted in triplicate, and error bars reflect standard deviations. cy(LLFFA) is SEQ ID NO:11.
It also tested whether DNP-conjugated EPIs could promote the opsonophagocytic killing (OPK) of K. pneumoniae by macrophages. This was tested by using an OPK assay. Briefly, K. pneumoniae cells were treated with EPI and then anti-DNP antibody before being exposed to macrophages for either 6 or 24 hours. During this incubation period, macrophages that recognize K. pneumoniae cells will phagocytose them, and phagocytosed bacteria will remain viable for up to 6 hours, but within 24 hours are rendered inviable by OPK. Thus, macrophages were isolated after 6 and 24 hours of incubation with K. pneumoniae, lysed them, and plated and grew the lysate, which yielded bacterial colonies that reflect the phagocytosis (at 6 hrs) or OPK (at 24 hrs) of bacteria.
Given that cy(LLFFF)-DNP (SEQ ID NO:5) recruits antibodies to K. pneumoniae surfaces, it was expected that K. pneumoniae opsonized in this manner would be more susceptible to phagocytosis by macrophages. AR-PCC-driven phagocytosis and OPK were quantified by a gentamicin protection assay, as depicted in FIG. 7A. For this assay, K. pneumoniae cells (strain BAA 1705) were treated with cy(LLFFF)-DNP (SEQ ID NO:5), opsonized by anti-DNP antibodies, and then incubated with murine bone-marrow-derived macrophages (BMDMs). BMDMs were subsequently exposed to a solution containing gentamicin, to which K. pneumoniae strain BAA 1705 is susceptible, to kill any extracellular bacteria. Phagocytosed bacteria remain viable inside BMDMs for at least 1 h, yet are rendered inviable after 24 h by OPK (FIG. 13). Macrophages harvested at 1 h and 24 h were lysed and plated to generate bacterial colonies, which were enumerated to quantify phagocytosis and OPK.
Opsonophagocytic killing (OPK) assays. Klebsiella pneumoniae BAA1705 was treated with DNP-PCCs followed by incubation with anti-DNP antibody, as described above in the “Cell-Based ELISAs” section. These opsonized bacteria were then used to infect BMDMs at a multiplicity of infection of 50 for 0.5 h at 37° C. Bacteria were then washed by using RPMI 1640 Media and BMDMs were left in cell culture medium containing gentamicin (100 μg/ml). After 1 h and 24 h BMDMs were washed to remove gentamicin and intracellular bacteria were harvested by lysing BMDMs in RPMI media containing 0.2% Triton X 100. Bacterial CFUs were enumerated by plating onto LB agar. Bacterial counts at 1 h indicated the degree of opsonization while those at 24 h served as a measure of microbicidal activity of macrophages. For these measurements, anti-MrkA antibody and K. pneumoniae antiserum were used at dilutions of 5 μg/mL each.

Assay [2] has as its system Salmonella typhimurium (S. typhimurium) cells. Briefly: Whole-cell ELISA of biotinylated PCC binding. To be noted: biotinylated PCC at 5 μM. In general terms: ELISA stands for enzyme-linked immunosorbent assay.
Procedure: Whole-cell ELISAs. Detection of the binding of biotinylated PCCs to bacterial surface was performed as follows. 108 bacteria from a culture grown overnight were used for each test. Bacteria were incubated with PBS containing 1% BSA (PBS-BSA) for 1 h at 37° C., washed once with PBS, and then incubated with 5 μM of the biotinylated PCC in PBS-BSA for 1 h at 37° C. After washing thrice with PBS to remove unbound PCCs, bacteria were incubated with Streptavidin-HRP (1:1000) for 1 h at 37° C. Bacteria were washed thoroughly and the TMB reagent was added until visible coloration was observed. The reaction was quenched using 2N H2SO4 and absorbance was measured at 450 nm.

The structures appear in SMILES notation. “Also recorded” adds a separate entry of the source. Where a SMILES comes first, the peptide text is derived from it. Bridges are numbered along the chain shown (N, C = ends). Triazole bridges read from a SMILES are 1,4-linked. [ ]: non-standard residue; d: D form. The star is where a group is joined. Biotin = O=C1N[C@H]2[C@H](CS[C@H]2CCCCC(=O)*)N1; Lys(N3) = [N-]=[N+]=NCCCC[C@H](N)C(=O)O; PEG5 = NCCOCCOCCOCCOCCOCCC(=O)O; Pra = C#CC[C@H](N)C(=O)O

Turning to `CC(C)C[C@@H]1NC(=O)[C@@H](NC(=O)CCOCCOCCOCCOCCOCCNC(=O)CCCC[C@@H]2SC[C@@H]3NC(=O)N[C@@H]32)Cc2cn(nn2)CCCC[C@@H](C(N)=O)NC(=O)[C@H](Cc2ccccc2)NC(=O)[C@H](Cc2ccccc2)NC(=O)[C@H](Cc2ccccc2)NC(=O)[C@H](CC(C)C)NC1=O` [cy(LLFFF)] ({Biotin-PEG5}-[Pra]LLFFF[Lys(N3)]-NH2; triazole 1-7; N-terminus and C-terminus assumed), in assay [1] (macrophages harvested at 6 hrs), the “CFU at 6 hrs, DNP-conjugated EPI and anti-DNP antibody” value was “more than 80,000 CFU”; the “cell counts at 6 hrs, DNP-conjugated EPI without antibody” value is recorded as ~35,000. Further, the “colony counts at 24 h (OPK)” value in assay [1] (macrophages harvested at 24 h) is recorded as “little to no cell counts”. Further, in assay [2], the “whole-cell ELISA signal, S. typhimurium” value was “small absorbances; also recorded: only weak signals”.
